The source of these data is ChEMBL document CHEMBL3856285, “Recent progress in the identification of adenosine monophosphate-activated protein kinase (AMPK) activators” (Bioorg Med Chem Lett, 2016).

The structures appear in SMILES notation.

Experiment [1] can be described thus: Activation of rat liver AMPK assessed as increase in 33P-phosphorylation of SAMS peptide.
The target in experiment [2] is T1, 5'-AMP-activated protein kinase catalytic subunit alpha-2/beta-1/gamma-2 (Homo sapiens, UniProt P54646+Q9UGJ0+Q9Y478). Kind of experiment: Activation of recombinant human His-tagged AMPK alpha2 (2 to 552 residues)/beta1 (2 to 270 residues)/gamma2 (2 to 569 residues) expressed in baculovirus infected sf21 cells preincubated for 30 mins followed by biotinylated ACC-CREBp peptide substrate addition measured after 45 mins by HTRF assay relative to AMP.
Target sequence in this assay (P54646 whole entry, one chain of several, the tested form may be a part): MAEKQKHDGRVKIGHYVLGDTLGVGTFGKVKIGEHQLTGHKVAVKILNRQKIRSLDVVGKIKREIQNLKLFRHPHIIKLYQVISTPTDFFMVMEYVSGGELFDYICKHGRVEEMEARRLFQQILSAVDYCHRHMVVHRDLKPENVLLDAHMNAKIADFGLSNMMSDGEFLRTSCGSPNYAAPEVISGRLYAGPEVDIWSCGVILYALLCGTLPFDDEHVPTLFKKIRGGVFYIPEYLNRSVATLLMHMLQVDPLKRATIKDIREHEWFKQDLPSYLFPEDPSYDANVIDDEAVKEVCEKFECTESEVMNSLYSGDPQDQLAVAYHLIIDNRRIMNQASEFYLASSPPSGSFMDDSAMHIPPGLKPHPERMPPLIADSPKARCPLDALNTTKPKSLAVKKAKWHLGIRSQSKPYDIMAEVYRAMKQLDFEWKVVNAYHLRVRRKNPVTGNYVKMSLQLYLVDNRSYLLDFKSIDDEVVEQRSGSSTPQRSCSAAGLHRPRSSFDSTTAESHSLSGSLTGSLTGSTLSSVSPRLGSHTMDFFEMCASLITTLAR
Target sequence in this assay (Q9UGJ0 whole entry partner, one chain of several, the tested form may be a part): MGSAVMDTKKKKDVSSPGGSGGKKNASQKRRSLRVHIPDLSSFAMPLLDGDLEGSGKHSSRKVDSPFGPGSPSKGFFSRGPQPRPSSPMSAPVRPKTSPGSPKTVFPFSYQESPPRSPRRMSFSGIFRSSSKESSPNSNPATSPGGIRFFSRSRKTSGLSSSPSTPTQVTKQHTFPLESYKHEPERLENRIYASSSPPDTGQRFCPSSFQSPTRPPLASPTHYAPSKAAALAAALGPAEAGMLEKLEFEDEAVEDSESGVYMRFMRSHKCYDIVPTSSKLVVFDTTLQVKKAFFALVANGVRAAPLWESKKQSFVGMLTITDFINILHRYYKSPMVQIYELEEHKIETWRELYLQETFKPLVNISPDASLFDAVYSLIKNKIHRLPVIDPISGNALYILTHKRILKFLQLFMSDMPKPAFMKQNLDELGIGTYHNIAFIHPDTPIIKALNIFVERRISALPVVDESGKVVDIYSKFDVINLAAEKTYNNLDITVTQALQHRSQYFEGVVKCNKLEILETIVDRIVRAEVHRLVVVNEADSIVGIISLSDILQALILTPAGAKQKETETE

Experiment [3] addresses T2, 5'-AMP-activated protein kinase subunit beta-2 (Mus musculus) (UniProt Q6PAM0).
T2 sequence (whole entry): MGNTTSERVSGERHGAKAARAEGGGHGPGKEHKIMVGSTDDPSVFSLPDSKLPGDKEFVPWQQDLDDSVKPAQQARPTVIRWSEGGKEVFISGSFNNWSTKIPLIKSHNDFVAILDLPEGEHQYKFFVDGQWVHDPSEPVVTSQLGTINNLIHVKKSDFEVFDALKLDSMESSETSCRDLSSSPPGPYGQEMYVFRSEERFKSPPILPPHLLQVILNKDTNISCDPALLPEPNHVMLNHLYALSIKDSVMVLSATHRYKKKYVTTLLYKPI
Kind of experiment: Activation of AMPK beta2 in mouse C2C12 myotubes assessed as increase in phospho-ACC1 level at 1 uM after 2 hrs by ELISA relative to control.

In experiment [4] the target is T3, 5'-AMP-activated protein kinase subunit beta-1 (Homo sapiens) (UniProt Q9Y478).
T3 sequence (whole entry): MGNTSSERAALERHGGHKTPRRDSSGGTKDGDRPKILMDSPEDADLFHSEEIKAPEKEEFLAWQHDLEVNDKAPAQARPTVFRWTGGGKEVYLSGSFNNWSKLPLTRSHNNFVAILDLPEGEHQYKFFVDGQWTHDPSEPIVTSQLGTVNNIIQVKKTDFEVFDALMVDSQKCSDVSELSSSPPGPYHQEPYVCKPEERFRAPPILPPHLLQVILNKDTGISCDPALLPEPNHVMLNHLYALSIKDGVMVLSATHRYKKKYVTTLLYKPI
Kind of experiment: Activation of AMPK beta1 in human HepG2 cells assessed as increase in phospho-ACC1 level at 1 uM after 2 hrs by ELISA relative to control. The class given is cell-based.

In experiment [5] the target is T1, 5'-AMP-activated protein kinase catalytic subunit alpha-2/beta-1/gamma-2. Description: Activation of recombinant human His-tagged AMPK alpha2 (2 to 552 residues)/beta1 (2 to 270 residues)/gamma2 (2 to 569 residues) expressed in baculovirus infected sf21 cells preincubated for 30 mins followed by biotinylated ACC-CREBp peptide substrate addition measured after 45 mins by HTRF assay.
Target sequence in this assay (P54646 whole entry, one chain of several, the tested form may be a part): as the sequence (P54646 whole entry, one chain of several, the tested form may be a part) above
Target sequence in this assay (Q9UGJ0 whole entry, one chain of several, the tested form may be a part): as the sequence (Q9UGJ0 whole entry partner, one chain of several, the tested form may be a part) above

The target of experiment [6] is AMPK alpha1/beta1/gamma2 (Homo sapiens) (UniProt Q9UGJ0+Q9Y478+Q13131). Kind of experiment: Activation of human recombinant AMPK alpha1/beta1/gamma2 expressed in Escherichia coli assessed as residual activity at 30 uM using AMARAA peptide relative to control.
AMPK alpha1/beta1/gamma2 (Homo sapiens), sequence (Q13131 whole entry partner, one chain of several): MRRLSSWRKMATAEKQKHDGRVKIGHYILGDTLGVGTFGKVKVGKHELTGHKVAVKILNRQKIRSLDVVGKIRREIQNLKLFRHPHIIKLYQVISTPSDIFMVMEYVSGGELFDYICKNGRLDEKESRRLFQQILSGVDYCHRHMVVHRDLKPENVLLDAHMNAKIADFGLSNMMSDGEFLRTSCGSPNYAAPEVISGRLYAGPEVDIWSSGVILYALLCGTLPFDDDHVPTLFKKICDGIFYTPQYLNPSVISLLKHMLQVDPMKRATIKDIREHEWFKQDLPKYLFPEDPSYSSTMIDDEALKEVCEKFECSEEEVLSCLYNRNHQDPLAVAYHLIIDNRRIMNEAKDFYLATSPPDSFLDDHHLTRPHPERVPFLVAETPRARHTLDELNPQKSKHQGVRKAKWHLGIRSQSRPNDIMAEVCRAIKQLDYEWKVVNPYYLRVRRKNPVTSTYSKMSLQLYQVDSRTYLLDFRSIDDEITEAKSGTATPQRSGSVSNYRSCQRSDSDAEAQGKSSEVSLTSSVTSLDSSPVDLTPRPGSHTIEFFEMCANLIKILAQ
AMPK alpha1/beta1/gamma2 (Homo sapiens), sequence (Q9UGJ0 whole entry, one chain of several): as the sequence (Q9UGJ0 whole entry partner, one chain of several, the tested form may be a part) above
For experiment [7], the target named is T4, AMP-activated protein kinase (AMPK) alpha-1/beta-1/gamma-1 (Homo sapiens) (UniProt P54619+Q9Y478+Q13131). Description: Activation of full length human recombinant AMPK alpha1/beta1/gamma1 expressed in baculovirus infected sf21 cells using 5'-FAM-SAMS peptide substrate after 45 mins by fluorescence assay relative to AMP.
T4 sequence (P54619 whole entry, one chain of several): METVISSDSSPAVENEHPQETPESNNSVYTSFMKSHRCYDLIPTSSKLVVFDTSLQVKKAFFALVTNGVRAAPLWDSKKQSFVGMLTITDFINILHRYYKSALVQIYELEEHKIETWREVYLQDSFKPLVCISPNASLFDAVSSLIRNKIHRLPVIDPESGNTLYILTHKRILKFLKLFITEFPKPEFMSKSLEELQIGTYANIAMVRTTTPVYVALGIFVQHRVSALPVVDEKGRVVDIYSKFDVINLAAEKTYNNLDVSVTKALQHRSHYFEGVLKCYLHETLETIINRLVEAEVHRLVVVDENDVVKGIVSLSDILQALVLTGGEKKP
T4 sequence (Q13131 whole entry partner, one chain of several): as the sequence (Q13131 whole entry partner, one chain of several) above
In experiment [8] the target is T5, AMP-activated protein kinase (AMPK) alpha-1/beta-1/gamma-1 (Homo sapiens, UniProt P54619+Q13131+Q9Y478). Description: Activation of full length human recombinant AMPK alpha1/beta1/gamma1 expressed in baculovirus infected sf21 cells using 5'-FAM-SAMS peptide substrate after 45 mins by fluorescence assay.
T5 sequence (P54619 whole entry, one chain of several): as the sequence (P54619 whole entry, one chain of several) above
T5 sequence (Q13131 whole entry, one chain of several): as the sequence (Q13131 whole entry partner, one chain of several) above
Experiment [9] addresses T5, AMP-activated protein kinase (AMPK) alpha-1/beta-1/gamma-1. Description: Activation of full length human phosphorylated His-tagged AMPK alpha1/beta1/gamma1 expressed in Escherichia coli BL21-CodonPlus (DE3)-RIPL using SAMS peptide substrate preincubated for 15 mins followed by PP2A addition for 90 mins followed by substrate addition measured after 60 mins in presence of [33P]ATP by scintillation counting method.

In experiment [10] the target is T4, AMP-activated protein kinase (AMPK) alpha-1/beta-1/gamma-1 (Homo sapiens). Description: Activation of full length human phosphorylated His-tagged AMPK alpha1/beta1/gamma1 expressed in Escherichia coli BL21-CodonPlus (DE3)-RIPL using SAMS peptide substrate preincubated for 15 mins followed by PP2A addition for 90 mins followed by substrate addition measured after 60 mins in presence of [33P]ATP by scintillation counting method relative to AMP.

Experiment [11] has as its target T6, AMP-activated protein kinase, AMPK (Homo sapiens) (UniProt P54646+O43741+P54619+Q9UGJ0+Q9Y478+Q13131+Q9UGI9). Kind of experiment: Activation of AMPK (unknown origin) assessed as residual activity at 30 uM using AMARAA peptide after 30 mins by DELFIA assay relative to control.
The test system of experiment [12] is Mus musculus. Description: Antidiabetic activity in […] ob/ob mouse model assessed as reduction in blood glucose level at 150 mg/kg, po bid for 8 days relative to control. The class given is functional. As to conditions: 192 h.
Experiment [13] is filed under the species Rattus norvegicus.
Description: Allosteric activation of rat liver AMPK in presence of ATP relative to control
Experiment [14] deals with T5, AMP-activated protein kinase (AMPK) alpha-1/beta-1/gamma-1. Kind of experiment: Activation of full length human His/GST-tagged AMPK alpha1/beta1/gamma1 expressed in baculovirus expression system after 1 hr by Z'Lyte assay.
In experiment [15] the target is T7, AMPK alpha2/beta2/gamma1 (Homo sapiens) (UniProt P54646+O43741+P54619). Kind of experiment: Activation of full length human His6-tagged AMPK alpha2/beta2/gamma1 expressed in Escherichia coli BL21-CodonPlus (DE3)-RIPL preincubated for 10 mins followed by FL-Peptide 7 substrate addition measured after 2 hrs by fluorescence assay relative to AMP.
T7 sequence (O43741 whole entry, looked up): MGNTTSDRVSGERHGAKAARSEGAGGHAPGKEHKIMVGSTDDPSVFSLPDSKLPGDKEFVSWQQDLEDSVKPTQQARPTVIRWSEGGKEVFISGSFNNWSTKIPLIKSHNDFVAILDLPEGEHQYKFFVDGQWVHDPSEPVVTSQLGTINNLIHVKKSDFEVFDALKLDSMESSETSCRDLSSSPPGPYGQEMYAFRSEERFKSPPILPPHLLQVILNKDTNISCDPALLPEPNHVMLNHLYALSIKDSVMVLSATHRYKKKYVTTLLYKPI
T7 sequence (P54619 whole entry, looked up): as the sequence (P54619 whole entry, one chain of several) above
T7 sequence (P54646 whole entry, looked up): as the sequence (P54646 whole entry, one chain of several, the tested form may be a part) above
The target in experiment [16] is T4, AMP-activated protein kinase (AMPK) alpha-1/beta-1/gamma-1 (Homo sapiens). Description: Activation of full length human recombinant AMPK alpha1/beta1/gamma1 preincubated for 10 mins followed by FL-Peptide 7 addition measured after 2 hrs by fluorescence assay relative to AMP. The class given is protein-complex assay.
For experiment [17], the target named is T7, AMPK alpha2/beta2/gamma1 (Homo sapiens). Description: Activation of full length human His6-tagged AMPK alpha2/beta2/gamma1 expressed in Escherichia coli BL21-CodonPlus (DE3)-RIPL preincubated for 10 mins followed by FL-Peptide 7 substrate addition measured after 2 hrs by fluorescence assay.
The target in experiment [18] is T4, AMP-activated protein kinase (AMPK) alpha-1/beta-1/gamma-1 (Homo sapiens). Kind of experiment: Activation of full length human recombinant AMPK alpha1/beta1/gamma1 preincubated for 10 mins followed by FL-Peptide 7 addition measured after 2 hrs by fluorescence assay. The class given is protein-complex assay.
Experiment [19] has as its target T6, AMP-activated protein kinase, AMPK (Homo sapiens). Kind of experiment: Activation of human recombinant AMPK assessed as increase in ADP accumulation using SAMS peptide after 30 mins by fluorescence assay.
Experiment [20] has as its target T5, AMP-activated protein kinase (AMPK) alpha-1/beta-1/gamma-1. Kind of experiment: Binding affinity for full length human N-terminal His/BAP-tagged AMPK alpha1/beta1/gamma1 expressed in Escherichia coli BL21-CodonPlus by surface plasmon resonance method.

For the molecule `N#Cc1c(O)c2c(-c3ccc(-c4ccccc4O)cc3)csc2[nH]c1=O`, the EC50 in [1] is 800 nM. With `COc1cc(C(O)=C2C(=O)Nc3cc(Cl)c(-c4ccc5c(ccn5C)c4)cc32)on1`, in [2], the Emax was found to be 256%. The Activity in [3] was determined as 114%; in experiment [4] it was 132%. The EC50 in [5] turned out to be 0.7 nM. Consider `Cc1ccc(-c2c(O)c3c(-c4ccc5ccccc5c4O)c(Cl)sc3[nH]c2=O)cc1`, for which the Activity in experiment [6] is above 90%. Turning to `Cc1ccc(Oc2nc3nc(-c4ccc(N5CCCC5)cc4)c(Cl)cc3[nH]2)cc1C(=O)O`, the %max in experiment [7] is 681%. In addition, the EC50 in experiment [8] was 1 nM. For `O=C(O)c1n[nH]c2cc(Cl)c(-c3ccc(C4(O)CCC4)cc3)cc12`, the EC50 in experiment [9] stood at 8.3 nM. Moreover, in experiment [10], the %max was 80%. With `O=c1[nH]c2sc(Cl)c(-c3ccc4c(c3O)CCCC4)c2c(O)c1-c1ccccc1`, the Activity in experiment [11] is above 130%. The inhibition in vivo at 150 mg/kg in experiment [12] was determined as 41%. Consider `O=C(O)c1ccccc1O`, for which, in experiment [13], the A0.5 came out at 1 mM.

On to `Nc1nc(-c2ccc(-n3c(Cl)cc4[nH]c(=O)n(-c5cccc(C(=O)O)c5)c(=O)c43)cc2)cs1`, for which the midpoint of the response in experiment [14], the EC50, lay at 631 nM. Take `CC(C)(C(=O)O)[C@H]1CC[C@H](Oc2nc3nc(-c4ccc(C5(CO)CC5)cc4)c(Cl)cc3[nH]2)CC1`: the %max in experiment [15] is 237%; in [16] it was 257%. Moreover, the EC150 in experiment [17] came out at 5 nM; in experiment [18], 5.6 nM. In the case of `CC1(C)CC(c2ccccc2NS(=O)(=O)c2cccc(F)c2)Nc2ccc(C(F)(F)F)cc21` (stereo unspecified), the EC30 in experiment [19] turned out to be 1140 nM. Regarding `Cc1cc(-c2c(O)c3cc(-c4ccc(N(C)C)cc4)c(Cl)cc3[nH]c2=O)on1`, the midpoint of the response in [14], the EC50, lay at 39.8 nM. For the molecule `N#Cc1c(O)c2c(-c3ccc(-c4ccccc4O)cc3)c(Cl)sc2[nH]c1=O`, in experiment [20], the Kd turned out to be 74 nM.
